{"source": "patent US20250230193A1", "about": "“CYCLIC COMPOUND HAVING SELECTIVE KRAS INHIBITORY EFFECT ON HRAS AND NRAS” (CHUGAI SEIYAKU KABUSHIKI KAISHA, priority 2022, published 2025)", "key": {"[1]": {"target": "GDP-bound NRAS wild-type protein (Homo sapiens, UniProt P01111)", "sequence (P01111 whole entry)": "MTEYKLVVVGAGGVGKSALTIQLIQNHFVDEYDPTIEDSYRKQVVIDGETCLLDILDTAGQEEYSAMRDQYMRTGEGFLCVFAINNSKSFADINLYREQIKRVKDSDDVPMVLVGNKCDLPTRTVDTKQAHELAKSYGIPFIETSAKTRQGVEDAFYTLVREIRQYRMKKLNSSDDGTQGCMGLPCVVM", "experiment": "Binding to NRAS by surface plasmon resonance (SPR), Single Cycle Kinetics", "conditions": "SPR; for NRAS/KRAS (ratio of KD value with respect to NRAS to KD value with respect to KRAS): GDP-bound NRAS wild-type vs GDP-bound KRAS wild-type"}, "[2]": {"target": "GDP-bound HRAS wild-type protein (Homo sapiens, UniProt P01112)", "sequence (P01112 whole entry)": "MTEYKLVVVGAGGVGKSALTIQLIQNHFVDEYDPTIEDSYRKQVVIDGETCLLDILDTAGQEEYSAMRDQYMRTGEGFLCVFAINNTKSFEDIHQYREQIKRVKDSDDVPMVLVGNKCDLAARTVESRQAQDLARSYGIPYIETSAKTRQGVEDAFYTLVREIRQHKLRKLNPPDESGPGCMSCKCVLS", "experiment": "Binding to HRAS by surface plasmon resonance (SPR), Single Cycle Kinetics", "conditions": "SPR; for HRAS/KRAS (ratio of KD value with respect to HRAS to KD value with respect to KRAS): GDP-bound HRAS wild-type vs GDP-bound KRAS wild-type"}}, "note": "*1 amine or outer side, *2 acyl side, *3 side chain or, on linkers, in order; H or OH if unused. Where a SMILES comes first, the peptide text is derived from it. Bridges are numbered along the chain shown (N, C = ends). [ ]: non-standard residue; d: D form. The star is where a group is joined. hPhe(3-Cl-4-CF3) = N[C@@H](CCc1ccc(C(F)(F)F)c(Cl)c1)C(=O)O; NPrPhe(4-CF3) = CCCN[C@@H](Cc1ccc(C(F)(F)F)cc1)C(=O)O; NMePhe(4-Me) = CN[C@@H](Cc1ccc(C)cc1)C(=O)O; NMeGly(cPent) = CN[C@H](C(=O)O)C1CCCC1; X15 = O=C(CN(CC(F)F)[*:1])[*:2]; NMeD = CN[C@@H](CC(=O)O)C(=O)O; NMeL = CN[C@@H](CC(C)C)C(=O)O; Morpholide = C1CN(*)CCO1; Ac5c = NC1(C(=O)O)CCCC1; NEtG = CCNCC(=O)O; Sar = CNCC(=O)O", "data": [{"molecule": "CCO[C@@H]1C[C@H]2C(=O)NC3(CCC3)C(=O)N(C)[C@@H](C3CCCC3)C(=O)N(C)[C@H](C(=O)N(C)C)CC(=O)N(C)[C@@H](CC)C(=O)N[C@@H]([C@@H](C)CC)C(=O)N3CCCC[C@H]3C(=O)N(C)[C@H]3C/C=C\\CCN(C3=O)[C@@H](Cc3ccc(C(F)(F)F)cc3)C(=O)N(C)CC(=O)N[C@@H](CCc3cc(F)c(C(F)(F)F)c(F)c3)C(=O)N2C1", "note": "[PP1058]", "values": [{"measurement": "NRAS/KRAS (ratio of KD value with respect to NRAS to KD value with respect to KRAS)", "setting": "[1]; KD ratio", "value": "A (a compound having 10 or more and less than 20 is denoted as A)"}, {"measurement": "HRAS/KRAS (ratio of KD value with respect to HRAS to KD value with respect to KRAS)", "setting": "[2]; KD ratio", "value": "B (a compound having 3 or more and less than 10 is denoted as B)"}]}, {"molecule": "CC[C@H](C)[C@@H]1NC(=O)[C@H](CC(C)C)N(C)C(=O)C[C@@H](C(=O)N2CCOCC2)N(C)C(=O)[C@H](C2CCCC2)N(C)C(=O)C2(CCCC2)NC(=O)[C@@H]2CCCN2C(=O)[C@H](CCc2ccc(C(F)(F)F)c(Cl)c2)NC(=O)CN(CC)C(=O)[C@H](Cc2ccc(C)cc2)N(C)C(=O)CN(C)C(=O)CN(C)C1=O", "note": "[PP0025] ([NMeL]I[Sar][Sar][NMePhe(4-Me)][NEtG][hPhe(3-Cl-4-CF3)]P[Ac5c][NMeGly(cPent)][NMeD]-Morpholide; lactam N-11)", "values": [{"measurement": "NRAS/KRAS (ratio of KD for GDP-bound NRAS wild-type to KD for KRAS)", "setting": "[1]; KD ratio NRAS/KRAS", "value": "C (A compound having a KD ratio of 0.1 or more and less than 3 is denoted as C)"}, {"measurement": "HRAS/KRAS (ratio of KD for GDP-bound HRAS wild-type to KD for KRAS)", "setting": "[2]; KD ratio HRAS/KRAS", "value": "C (A compound having a KD ratio of 0.1 or more and less than 3 is denoted as C)"}]}, {"molecule": "CCO[C@@H]1C[C@H]2C(=O)NC3(CC(C)(C)C3)C(=O)N(C)[C@@H](C(CC)CC)C(=O)N(C)[C@H](C(=O)N(C)C)CC(=O)N(C)[C@@H](CC3CCC3)C(=O)N[C@@H]([C@@H](C)CC)C(=O)N(C)CC(=O)N(C)[C@H]3C/C=C\\CCN(C3=O)[C@@H](Cc3ccc(C)cc3)C(=O)N(C)CC(=O)N[C@@H](CCc3ccc(C(F)(F)F)c(OC)c3)C(=O)N2C1", "note": "[PP2172]", "values": [{"measurement": "NRAS/KRAS (ratio of KD value with respect to NRAS to KD value with respect to KRAS)", "setting": "[1]", "value": "A (a compound having 10 or more and less than 20 is denoted as A)"}, {"measurement": "HRAS/KRAS (ratio of KD value with respect to HRAS to KD value with respect to KRAS)", "setting": "[2]", "value": "B (a compound having 3 or more and less than 10 is denoted as B)"}]}, {"molecule": "CCO[C@@H]1C[C@H]2C(=O)NC3(CCC3)C(=O)N(C)[C@@H](C3CCCC3)C(=O)N(C)[C@H](C(=O)N(C)CC)CC(=O)N(C)[C@H]3CCCCCCc4ccc(cc4)C[C@@H](C(=O)N(C)CC(=O)N[C@@H](CCc4ccc(C(F)(F)F)c(OC)c4)C(=O)N2C1)N1CC/C=C\\C[C@@H](C1=O)N(C)C(=O)CN(C)C(=O)[C@H]([C@@H](C)CC)NC3=O", "note": "[PP2263]", "values": [{"measurement": "NRAS/KRAS (ratio of KD value with respect to NRAS to KD value with respect to KRAS)", "setting": "[1]", "value": "A (a compound having 10 or more and less than 20 is denoted as A)"}, {"measurement": "HRAS/KRAS (ratio of KD value with respect to HRAS to KD value with respect to KRAS)", "setting": "[2]", "value": "A (a compound having 10 or more and less than 20 is denoted as A)"}]}, {"molecule": "CCO[C@@H]1C[C@H]2C(=O)NC3(CCC3)C(=O)N(C)[C@@H](C3CCCC3)C(=O)N(C)[C@H](C(=O)N(C)C)CC(=O)N(C)[C@@H](CCOC)C(=O)N[C@@H]([C@@H](C)CC)C(=O)N(C)CC(=O)N(C)[C@H]3CCCCCN(C3=O)[C@@H](Cc3ccc(C(F)(F)F)cc3)C(=O)N(C)CC(=O)N[C@@H](CCc3cc(F)c(C(F)(F)F)c(F)c3)C(=O)N2C1", "note": "[PP0675]", "values": [{"measurement": "NRAS/KRAS (ratio of KD value with respect to GDP-bound NRAS wild-type protein to KD value with respect to KRAS)", "setting": "[1]; KD ratio NRAS/KRAS", "value": "B (a compound having 3 or more and less than 10 is denoted as B)"}, {"measurement": "HRAS/KRAS (ratio of KD value with respect to GDP-bound HRAS wild-type protein to KD value with respect to KRAS)", "setting": "[2]; KD ratio HRAS/KRAS", "value": "B (a compound having 3 or more and less than 10 is denoted as B)"}]}, {"molecule": "CCCN1C(=O)CN(C)C(=O)CN(CC(F)F)C(=O)[C@H]([C@@H](C)CC)NC(=O)[C@H](CC(C)C)N(C)C(=O)C[C@@H](C(=O)N2CCOCC2)N(C)C(=O)[C@H](C2CCCC2)N(C)C(=O)C2(CCCC2)NC(=O)[C@@H]2CCCN2C(=O)[C@H](CCc2ccc(C(F)(F)F)c(Cl)c2)NC(=O)CN(C)C(=O)[C@@H]1Cc1ccc(C(F)(F)F)cc1", "note": "[PP0752] ([NMeL]I[X15][Sar][NPrPhe(4-CF3)][Sar][hPhe(3-Cl-4-CF3)]P[Ac5c][NMeGly(cPent)][NMeD]-Morpholide; lactam N-11)", "values": [{"measurement": "NRAS/KRAS (ratio of KD value with respect to GDP-bound NRAS wild-type protein to KD value with respect to KRAS)", "setting": "[1]; KD ratio NRAS/KRAS", "value": "B (a compound having 3 or more and less than 10 is denoted as B)"}, {"measurement": "HRAS/KRAS (ratio of KD value with respect to GDP-bound HRAS wild-type protein to KD value with respect to KRAS)", "setting": "[2]; KD ratio HRAS/KRAS", "value": "B (a compound having 3 or more and less than 10 is denoted as B)"}]}]}
